How the values were obtained:
Type in all cases: cell-based
[1] = system: human skeletal muscle cells (hSkMC1); assay: Proliferation of human skeletal muscle cells, batch hSkMC1 (resazurin assay); details: for Effect on proliferation (FIG. 3a, in words): individual compounds and all 4 combinations, combinations P<0.001, except 100 nM nandrolone plus 100 nM P<0.05
Description: (§1) Two different batches of human skeletal muscle cells or satellite cells (hSkMC1—obtained from a healthy person—and hSkMC2—obtained from a healthy person) were obtained from PromoCell (Heidelberg, Germany) and cultured in flasks according to the instructions by the provider. Cells were harvested and stored in liquid nitrogen until used for the experiments. Cells were not used at passage number higher than 15. For the experiments cells were cultured at 37° C. and 5% CO2 at a density of 3,500-7,000 cells/cm2 in basal medium (PromoCell) plus the addition of 5% charcoal (Sigma-Aldrich) treated fetal bovine serum (FBS) (PAA, Germany) using 24-well plates (Costar) til about 80% confluency.
(§2) Medium and hormones were replaced on day 1, 4 and 7. Proliferation was measured using the resazurin assay (Stern-Straeter et al., 2008). Statistical analysis of the proliferation data was performed with the Student's t-test.

[2] = system: human skeletal muscle cells (hSkMC2); assay: Proliferation of human skeletal muscle cells, batch hSkMC2 (resazurin assay)
Description: as §1, §2

[3] = system: vitamin D receptor expression in human skeletal muscle cells (hSkMC1); assay: Vitamin D receptor expression by flow cytometry, hSkMC1 cells; details: compared with hSkMC2, data not shown
Description: as §1
(§3) Androgen and vitamin D receptor staining protocols with the subsequent visualization by flow cytometry methods were derived from the publications of Krishan et al. (2000) and Folgueira et al. (2000). […] All solutions further contained Tween 20 (Sigma Aldrich) as detergent to maintain the permeabilized status of the cells throughout the entire staining experiment. The staining in non-stimulated and stimulated cells were compared by determining the intensity of the staining in the cells as well as the staining in the % of cells. […] The increase in the % of stained cells beyond the setpoint of the marker (at 1% for background staining) was determined with and without hormonal treatment.

[4] = system: vitamin D receptor (VD3R) expression in human skeletal muscle cells (hSkMC2); assay: Vitamin D receptor expression by flow cytometry, hSkMC2 cells; details: 5 days of treatment, flow cytometry (FIG. 2)
Description: as §1, §3

C=C1/C(=C\C=C2/CCC[C@]3(C)[C@@H]([C@H](C)CCCC(C)(C)O)CC[C@@H]23)C[C@@H](O)C[C@@H]1O [dhvit D3, 1α,25-dihydroxyvitamin D3]
Percentage increase (% Δ) in proliferation compared to control ([1]; 10 nM dhvit D3, 8 days): 1%
Percentage increase (% Δ) in proliferation compared to control ([1]; 100 nM dhvit D3, 8 days): −5%
Effect on proliferation (FIG. 3a, in words) [1]: no effect on proliferation
Percentage increase (% Δ) in proliferation compared to control ([2]; 10 nM dhvit D3, 8 days): 1%
Percentage increase (% Δ) in proliferation compared to control ([2]; 100 nM dhvit D3, 8 days): 8%
Effect on proliferation (FIG. 3b, in words) ([2]; higher concentrations of 1α,25-dihydroxyvitamin D3, 4 combinations vs control P<0.05, except 100 nM nandrolone plus 10 nM P<0.001): an increase in proliferation
Effect on vitamin D receptor expression [3]: less pronounced

C[C@]12CC[C@H]3[C@@H](CCC4=CC(=O)CC[C@@H]43)[C@@H]1CC[C@@H]2O [nandrolone]
Percentage increase (% Δ) in proliferation compared to control ([1]; 100 nM nandrolone, 8 days): 3%
Percentage increase (% Δ) in proliferation compared to control ([1]; 1000 nM nandrolone, 8 days): 1%
Effect on proliferation (FIG. 3a, in words) [1]: no effect on proliferation
Percentage increase (% Δ) in proliferation compared to control ([2]; 100 nM nandrolone, 8 days): 4%
Percentage increase (% Δ) in proliferation compared to control ([2]; 1000 nM nandrolone, 8 days): 1%
Effect on vitamin D receptor expression [3]: less pronounced
Change in number of cells with positive vitamin D receptor [4]: increases

From US10543217B2, “Method of treating frailty” (Organext Research B.V., priority 2009, dated 2020)
